{"source": "patent US11473088B2", "about": "“Method of treating cancer and method of sensitizing cancer cells to the action of chemotherapeutic agents via growth hormone receptor antagonists or knock down” (Ohio University, priority 2016, dated 2022)", "key": {"four melanoma cell lines": {"test_system": "four melanoma cell lines", "experiment": "Cell proliferation / EC50 determination", "details": "serum concentration in media 1%", "experimental": "A 1% (w/v) resazurin (Sigma-Aldrich #R7017) solution in 1× PBS was made and filter-sterilized. The final concentration of resazurin in the assay was 0.004%. Inside the proliferating cells, mildly fluorescent blue resazurin is reduced to a bright pink fluorescent product called resorufin (stable for 4 hours), which allows for a quantitative measure of the percentage of proliferating cells. In all cases, cells were incubated at 37° C. in 5% CO2 for 45-60 min. for adequate sensitivity of detection. Briefly, cells were seeded at 10,000 cells/cm^2 into 96-well plates and transfected as described above. The resazurin assay was performed 60 hours after transfection (unless specified otherwise) and resorufin absorbance was measured at 570 nm (reference wavelength=600 nm) using Spectramax250 (Molecular Devices, Sunnyvale, Calif.) and SoftmaxPro software.\nMore specifically, SK-MEL-28 cells (FIG. 8A, panel 1), MALME-3M cells (FIG. 8A, panel 2), MDA-MB-435 cells (FIG. 8A, panel 3), and SK-MEL-5 cells (FIG. 8A, panel 4) were treated with increasing doses of hGH for 48 hr. and cell proliferation was estimated using a resazurin-based metabolic assay.\nFor treatment of melanoma cells, the following five anti-tumor compounds were obtained from the sources mentioned: cisplatin (Calbiochem #232120, Darmstadt, Germany), doxorubicin (Sigma Aldrich #D-1515, St. Louis, Mo.), oridonin (Sigma-Aldrich #O-9639, St. Louis, Mo.), Paclitaxel (Sigma-Aldrich #C-7191), and vemurafenib/PLX4032 (ApexBio #A-3004, Houston, Tex.). […] In the subsequent experiments, the following drug concentrations were used unless specified otherwise: cisplatin (0.5 μM), doxorubicin (10 nM), oridonin (0.5 μM), paclitaxel (1 nM), vemurafenib (2 nM). Treatments were performed for 24 hours starting 48 hours post-transfection with siRNA."}, "[1]": {"test_system": "Hep-G2 and SK-HEP-1 cells", "experiment": "Time-lapse WB of GH-regulated signaling pathways", "type": "cell-based, human", "details": "50 ng/mL GH; within 20 minutes", "procedure": "Following treatments, cells were lysed by mild sonication in Ripa lysis buffer as described previously. SDS-PAGE and western-blot was performed using general lab-techniques as described previously."}, "HepG2 cells": {"test_system": "HepG2 cells", "experiment": "RT-qPCR after GH / GHR-antagonist treatment", "type": "cell-based, human", "details": "3 days", "procedure": "Following treatments, cells were lysed, and RNA extraction was performed using IBI Tri-isolate kit (IBI), following manufacturer's protocol. RT-qPCR was performed as described previously.\nAnd so, the inventors performed a similar experiment with HepG2 and SK-HEP-1 human liver cancer cells, which have been extensively studied and known to express GHR, to verify this observation in human melanoma cells. In vitro, HepG2 cells were treated for 3 days with either 50 ng/mL GH (2.5 nM), or 50 nM […], or both GH and GHR-antagonist, and their RNA expressions were compared against untreated controls at basal condition (i.e. no drug treatment).\nThe inventors had previously shown that knock-down of GHR in turn strongly attenuates MET as well as HGF transcript levels in human melanoma. To verify this observation in another GHR expressing human cancer like HCC, the inventors analyzed the effects of GH and GHR-antagonist treatment on the expression of the oncogenic HGF-MET loop in human liver cancer cells. HepG2 and SK-HEP-1 cells were treated for 3 days with either 50 ng/mL GH (2.5 nM), or 50 nM GHR-antagonist, or both, and their RNA expressions were compared against untreated controls at basal levels (i.e. no drug treatment). No additional effect of added GH on the expression levels of HGF or MET in the liver cancer cell lines was observed, except a 2-fold increase in MET levels in SK-HEP-1 cells (FIG. 39). […] Irrespective of presence of added GH, the antagonist lowered HGF levels by >4-fold in Hep-G2 cells and up to 2-fold in SK-HEP-1 cells; while the MET levels were decreased by >2-fold in both Hep-G2 and SK-HEP-1 cells compared to the GH treated samples (FIG. 39). This observed nature of the suppressive effect of GHR-antagonist strongly indicates the existence of a autocrine/paracrine GH action in HCC, as the inventors had found stable GH expression in both Hep-G2 and SK-HEP-1 cells."}, "SK-MEL-5 cells [2]": {"test_system": "SK-MEL-5 cells", "experiment": "Cell proliferation (resazurin) assay", "type": "cell-based, human", "details": "48 hr"}, "SK-MEL-28 cells": {"test_system": "SK-MEL-28 cells", "experiment": "Phosphorylation of intracellular signaling intermediates by WB", "type": "cell-based, human", "procedure": "(§1) Briefly, cell lysates were separated by SDS-PAGE and transferred to nitrocellulose membrane by a wet-transfer method at 70 mA over 14 hours at 4° C. and blocked with 5% non-fat dry milk (NFDM) or 5% bovine serum albumin (BSA) in 1× TBS-T (Tris buffered saline, […] with 0.1% Triton-X100) for 12-16 hours at 4° C. with gentle rocking. Membranes were then incubated with primary antibody (at the specific dilutions cited below) for 12-16 hours at 4° C. with gentle rocking. Membranes were then washed for 5 min. 3 times with 1× TBS-T and incubated with corresponding secondary antibodies (at the specific dilutions cited below) for 2 hours at 25° C. Membranes were then washed for 5 min. 4 times with 1× TBS-T, treated with West Femto Chemiluminiscence detection reagents (Thermo Fisher Scientific), and the chemiluminiscence signal was captured using a GelDoc (Biorad) fluorescence reader. Densitometric analysis of the blots was performed by measured band-intensity from the area-under-curve using ImageJ software.\n(§2) GH-GHR action regulates phosphorylation states of intracellular signaling intermediates in human melanoma cells: In order to assess the effects of GHR-KD on the activation states of GH regulated shared oncogenic signaling pathways, scr-siRNA or GHR-siRNA transfected human melanoma cells, at 60 hours post-transfection, were treated with 50 ng/ml hGH for 20 minutes, and phosphorylation levels of intracellular signaling intermediates were analyzed by WB. Results are described below, and shown in FIGS. 9A-9I, 10A-10L, and 11A-11I. For the results described and shown in FIGS. 9A-I, SK-MEL-28 cells, 24 hr post-transfection with either scramble (scr)-siRNA or GHR-siRNA were treated for ten mins with GH and lysed as described. WB was performed using appropriate antibodies. Densitometry analyses of individual blots was performed using Image) software and the ratio of phosphorylated vs. total protein levels against untreated scr-siRNA transfected controls. Overall, excess GH increased while GHR-KD decreased phosphorylation states. […] In all cases, […]] Blots from individual experiments were quantified and the mean of three blots per antibody was taken. Protein levels were normalized against expression of β-actin. [*, p<0.05, Students t test, n=3]. And, for the results described and shown in FIGS. 11A-11I, WB was performed using appropriate antibodies. Densitometry analyses of individual blots was performed using ImageJ software and the ratio of phosphorylated vs. total protein levels against untreated scr-siRNA transfected controls. Overall, excess GH increased while GHR-KD decreased phosphorylation states. Blots from individual experiments were quantified and the mean of three blots per antibody was taken. Protein levels were normalized against expression of β-actin. [*, p<0.05, Students t test, n=3]"}, "SK-MEL-5 cells [3]": {"test_system": "SK-MEL-5 cells", "experiment": "Phosphorylation of intracellular signaling intermediates by WB", "type": "cell-based, human", "procedure": "as §1, §2"}, "MALME-3M cells": {"test_system": "MALME-3M cells", "experiment": "Phosphorylation of intracellular signaling intermediates by WB", "type": "cell-based, human", "procedure": "as §1, §2"}}, "data": [{"substance": "hGH: Recombinant human growth hormone, Antibodies Online #ABIN2017921", "values": [{"measurement": "minimum hGH concentration for a significant difference in cell proliferation", "setting": "four melanoma cell lines", "result": 50, "unit": "ng/mL"}, {"measurement": "phosphorylation states of STAT3, STAT5, SRC, and ERK1/2 (p44/42 MAPK)", "setting": "[1]", "result": "increased significantly"}, {"measurement": "RNA level of CDH1, the epithelial marker", "setting": "HepG2 cells; 50 ng/mL GH", "result": "downregulating"}, {"measurement": "RNA levels of mesenchymal marker vimentin", "setting": "HepG2 cells; 50 ng/mL GH", "result": "significantly upregulate"}, {"measurement": "levels of ABCC4 and of the transcription factor SPI-B", "setting": "HepG2 cells; exogenous GH 50 ng/mL", "result": "markedly upregulated"}, {"measurement": "Cell proliferation induced by hGH-excess (increase)", "setting": "SK-MEL-5 cells [2]; 50 ng/ml hGH", "result": 10, "unit": "%"}, {"measurement": "increase in proliferation", "setting": "SK-MEL-5 cells [2]; 150 ng/mL hGH", "result": 22, "unit": "%"}, {"measurement": "increase in GH-induced phosphorylation of JAK2", "setting": "SK-MEL-28 cells", "result": 6.1, "unit": "fold"}, {"measurement": "increase in GH-induced phosphorylation of SRC", "setting": "SK-MEL-28 cells", "result": 3.5, "unit": "fold"}, {"measurement": "STAT5 phosphorylation increased", "setting": "SK-MEL-28 cells; 50 ng/ml hGH", "result": 4.1, "unit": "fold"}, {"measurement": "increase in STAT1 phosphorylation level", "setting": "SK-MEL-28 cells; 50 ng/ml hGH", "result": 2.4, "unit": "fold"}, {"measurement": "increase in STAT3 phosphorylation level", "setting": "SK-MEL-28 cells; 50 ng/ml hGH", "result": 1.9, "unit": "fold"}, {"measurement": "ERK1/2 levels upregulated by GH (increase)", "setting": "SK-MEL-5 cells [3]", "result": 5, "unit": "fold"}, {"measurement": "increase in GH-induced phosphorylation of JAK2", "setting": "SK-MEL-5 cells [3]", "result": 1.7, "unit": "fold"}, {"measurement": "increase of AKT phosphorylation level", "setting": "SK-MEL-5 cells [3]; 50 ng/ml hGH", "result": "up to 4 fold"}, {"measurement": "increase of mTOR phosphorylation level", "setting": "SK-MEL-5 cells [3]; 50 ng/ml hGH", "result": "≤ 15", "unit": "fold"}, {"measurement": "increase in GH-induced phosphorylation of SRC", "setting": "MALME-3M cells", "result": 1.7, "unit": "fold"}, {"measurement": "STAT5 phosphorylation increased", "setting": "MALME-3M cells; 50 ng/ml hGH", "result": 5.8, "unit": "fold"}, {"measurement": "increase in STAT1 phosphorylation level", "setting": "MALME-3M cells; 50 ng/ml hGH", "result": 2.2, "unit": "fold"}, {"measurement": "increase in STAT3 phosphorylation level", "setting": "MALME-3M cells; 50 ng/ml hGH", "result": 11.9, "unit": "fold"}]}]}
